Results: patent publication US7595327B2, “Beta-sulfonamide hydroxamic acid inhibitors of tace/matrix metalloproteinase” (priority 2005, dated 2009)

Experiments:
[1] = test system: LPS-induced TNF-α secretion in human whole blood; test: Human whole blood assay for LPS-induced TNF-α secretion; type: cell-based; conditions: Homo sapiens, LPS 100 ng/ml, read-out: TNF Secretion HWB IC50
Procedure: procedure is essentially as described in Newton, R. C., et al., (2001) Ann Rheum […]32, incorporated by reference herein in its entirety. The basic measurement of the assay is the percentage of inhibition of TNF-α secretion and the IC50 determination by a […] model-39 of LSW data analysis tool. 350 μl of fresh human blood drawn from healthy volunteers were pre-incubated with compounds for one hour at the various concentrations at 37° C. with turning generally, the final DMSO concentrations should be kept below 0.2%. At the end of cubation, LPS (Sigma, L2262) was added to the blood at 100 ng/ml and the samples were further incubated for 4 hours or overnight at 37° C. with constant rotation. At the end of the incubation period, 650 μl of serum-free medium was added to the blood samples and the samples were centrifuged at 1500 rpm for 15 minutes. 500 μl of supernate was collected and frozen at -80° C. The TNF-α and other proinflammatory cytokines were detected by ELISA assay according to the manufacturer's instruction (Biosource International, Inc., Camarillo, Calif.).

[2] = target: T1, TACE (catalytic domain of the recombinant TACE protein) (Homo sapiens, UniProt P78536); test: TACE FRET assay using TACE Cat; type: biochemical; conditions: FRET, pro-TNF-α substrate peptide; read-out: TACE IC50
T1 construct: The catalytic domain of the recombinant TACE protein was expressed and purified; made in house
Procedure: The procedure is essentially as described in Jin, G. et al., Analytical Biochemistry (2002) 302, 269-275, incorporated by reference herein in its entirety. […] K is the IC50. Generally, n and B are floated, noting that n (hill slope) should be close to 1 and B (background offset) to 0.
Pro-TNF-α substrate peptide Abz-[…]-Dpa (AnaSpec, San Jose, Calif., WARC-1) was prepared as a 2 mM stock solution in the TACE assay buffer (50 mM Tris-HCI, pH 7.4, 25 mM NaCl, 4% Glycerol, 0.005% Brij 35). The catalytic domain of the recombinant TACE protein was expressed and purified. The TACE protein (1 ug/ml) was pretreated with the inhibitors at various concentrations for 10 min at room temperature. The reaction was initiated by the addition of the substrate peptide. The increase in fluorescence was monitored at an Excitation of 320 nm and an Emission of 420 nm over a period of 10 min. The initial rate (slope) of the reaction was determined using a fluorescence plate reader (Molecular Devices, Spectra Max Gemini XS).

[3] = target: T2, recombinant human MMP-2 (Homo sapiens, UniProt P08253); test: In-vitro fluorescence assay of MMP-2 activity; type: biochemical
T2 sequence (P08253 110-660): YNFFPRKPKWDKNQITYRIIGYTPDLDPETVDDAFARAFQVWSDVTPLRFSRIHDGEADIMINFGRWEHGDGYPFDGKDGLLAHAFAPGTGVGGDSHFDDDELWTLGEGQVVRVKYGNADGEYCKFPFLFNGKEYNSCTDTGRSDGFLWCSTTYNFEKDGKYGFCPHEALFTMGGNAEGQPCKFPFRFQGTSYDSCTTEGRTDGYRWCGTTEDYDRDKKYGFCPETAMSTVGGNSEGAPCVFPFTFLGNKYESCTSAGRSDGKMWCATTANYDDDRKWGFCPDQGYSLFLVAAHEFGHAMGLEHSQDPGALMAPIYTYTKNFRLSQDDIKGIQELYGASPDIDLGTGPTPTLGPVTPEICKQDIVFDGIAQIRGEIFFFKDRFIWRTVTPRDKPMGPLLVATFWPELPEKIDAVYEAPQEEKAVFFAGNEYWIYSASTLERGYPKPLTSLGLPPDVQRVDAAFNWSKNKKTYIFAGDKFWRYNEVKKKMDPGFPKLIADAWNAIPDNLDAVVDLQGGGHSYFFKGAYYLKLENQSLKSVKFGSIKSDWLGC

[4] = target: MMP-13 (Homo sapiens, UniProt P45452); test: In-vitro fluorescence assay of MMP-13 activity; type: biochemical
Procedure: See Knight, C. […] […].
The method was essentially the same as for the determination of MMP-1 activity, described above, except that the final concentration of purified MMP in the assay was 0.5 nM, prepared by diluting with the assay buffer.

[5] = test system: TNF-α secretion in Raw 264.7 cells; test: Cell-based assay for inhibition of TNF-α secretion in Raw cells; conditions: Mus musculus, RAW264.7, LPS 100 ng/ml, 4 hr
Procedure: The basic measurement of the assay is the percentage of inhibition of TNF-α secretion and the IC50 determination by a fitting with the model-39 of LSW data analysis tool. […] Cells are split twice a week by scraping and 1 to 10 or 20 dilutions. For testing compounds, cells are cultured to confluence and are seeded the day before the experiment in 24 well culture dishes at 0.5 to 1 million/ml well. On the next morning, the medium from the overnight culture is replaced with the fresh growth medium. The compounds are added at various concentration at the 0.2% of final DMSO concentrations (10 μl of a 20% DMSO solution containing testing compounds is added to each well). The cells are pre-incubated with compounds for 1 hr. LPS (Sigma, L2262) is added to cells at a final concentration of 100 ng/ml (10 μl of a […] LPS solution freshly diluted from a 1 mg/ml LPS stock solution in PBS is added to each well) and cells are further incubated for 4 hr at 37° C. 1 ml of the supernatant was collected, cells are spun down and the supernatants are frozen at −80° C. until use. The TNF-α and other proinflammatory cytokines were detected by an ELISA assay according to the manufacturer's instructions (Biosource International, Inc., Camarillo, Calif. (For IL-1b measurement in Raw cells, one round of freeze and thaw of the cells was required).

T1 sequence (P78536 223-474 limits assumed): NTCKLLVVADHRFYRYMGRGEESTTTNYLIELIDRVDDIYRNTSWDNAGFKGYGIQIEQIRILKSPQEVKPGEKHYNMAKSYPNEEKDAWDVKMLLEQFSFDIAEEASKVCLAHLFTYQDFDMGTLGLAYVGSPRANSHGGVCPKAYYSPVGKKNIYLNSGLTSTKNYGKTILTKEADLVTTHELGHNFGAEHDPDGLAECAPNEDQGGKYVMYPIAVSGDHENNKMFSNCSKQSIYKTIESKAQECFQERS

| IC50 [1] [nM] | IC50 [2] [nM] | IC50 [3] [nM] | IC50 [4] [nM] | IC50 [5] [nM] | Structure (SMILES) |
| --- | --- | --- | --- | --- | --- |
| 50 | 0.9 | > 10000 | 6630 | 20 | CC(=O)N1CCC(NS(=O)(=O)c2ccc(OCc3cc(C)nc4ccccc34)cc2)C(C(=O)NO)C1 (mixture of isomers) [Example 31, 1-Acetyl-4-[4-(2-methyl-quinolin-4-ylmethoxy)-benzenesulfonylamino]-piperidine-3-carboxylic acid hydroxyamide] |
| 1900 | 3.2 | > 10000 | > 10000 | 180 | Cc1cc(COc2ccc(S(=O)(=O)NC3CCN(CCO)CC3C(=O)NO)cc2)c2ccccc2n1 (mixture of isomers) [Example 32, 1-(2-Hydroxy-ethyl)-4-[4-(2-methyl-quinolin-4-ylmethoxy)-benzenesulfonylamino]-piperidine-3-carboxylic acid hydroxyamide] |
| 4900 | < 0.6 | > 16700 | > 16700 | 25 | Cc1cc(COc2ccc(S(=O)(=O)N[C@]3(C)CCCC[C@@H]3C(=O)NO)cc2)c2ccccc2n1 (racemic) [Example 60, (1S,2R)-N-hydroxy-2-methyl-2-[({4-[(2-methylquinolin-4-yl)methoxy]phenyl}sulfonyl)amino]cyclohexanecarboxamide (racemic)] |
| 9600 | 1.1 | > 16700 | > 16700 | 52 | Cc1cc(COc2ccc(S(=O)(=O)N(C)[C@@H]3[C@@H]4CC[C@@H](C4)[C@@H]3C(=O)NO)cc2)c2ccccc2n1 (relative stereo) [Example 5, endo-N-Hydroxy-3-[methyl({4-[(2-methylquinolin-4-yl)methoxy]phenyl}sulfonyl)amino]bicyclo[2.2.1]heptane-2-carboxamide] |
| 740 | 0.6 | > 16700 | > 16700 | 11 | Cc1cc(COc2ccc(S(=O)(=O)N[C@@H]3CCC[C@@H]3C(=O)NO)cc2)c2ccccc2n1 (relative stereo) [Example 11, cis-N-Hydroxy-2-[({4-[(2-methylquinolin-4-yl)methoxy]phenyl}sulfonyl)amino]cyclopentanecarboxamide] |
| 4500 | 1.8 | > 16700 | > 16700 | 60 | Cc1cc(COc2ccc(S(=O)(=O)N[C@@H]3CCCC[C@H]3C(=O)NO)cc2)c2ccccc2n1 (relative stereo) [Example 14, trans-N-Hydroxy-2-[({4-[(2-methylquinolin-4-yl)methoxy]phenyl}sulfonyl)amino]cyclohexanecarboxamide] |
| > 50000 | 2.6 | > 16700 | > 16700 | > 1000 | Cc1cc(COc2ccc(S(=O)(=O)N(C)[C@@H]3CC=CC[C@@H]3C(=O)NO)cc2)c2ccccc2n1 (relative stereo) [Example 15, cis-N-Hydroxy-6-[methyl({4-[(2-methylquinolin-4-yl)methoxy]phenyl}sulfonyl)amino]cyclohex-3-ene-1-carboxamide] |
| 4780 | < 0.6 | 9740 | 13700 | 93 | Cc1cc(COc2ccc(S(=O)(=O)N(C)[C@@H]3CCC[C@@H]3C(=O)NO)cc2)c2ccccc2n1 (relative stereo) [Example 16, cis-N-Hydroxy-2-[methyl({4-[(2-methylquinolin-4-yl)methoxy]phenyl}sulfonyl)amino]cyclopentanecarboxamide] |
| 1000 | 0.7 | > 10000 | > 10000 | 90 | C#CCN1C[C@H](C(=O)NO)[C@H](NS(=O)(=O)c2ccc(OCc3cc(C)nc4ccccc34)cc2)C1 (relative stereo) [Example 18, cis-N-Hydroxy-4-[({4-[(2-methylquinolin-4-yl)methoxy]phenyl}sulfonyl)amino]-1-prop-2-yn-1-ylpyrrolidine-3-carboxamide] |
| 200 | < 0.6 | > 10000 | ≥ 10000 | 20 | CC(=O)N1C[C@H](C(=O)NO)[C@H](NS(=O)(=O)c2ccc(OCc3cc(C)nc4ccccc34)cc2)C1 (relative stereo) [Example 19, cis-1-acetyl-N-Hydroxy-4-[({4-[(2-methylquinolin-4-yl)methoxy]phenyl}sulfonyl)amino]pyrrolidine-3-carboxamide] |
| 1300 | < 0.6 | 8800 | 4890 | 38 | Cc1cc(COc2ccc(S(=O)(=O)N[C@@H]3CN(C(=O)OC(C)(C)C)C[C@@H]3C(=O)NO)cc2)c2ccccc2n1 (relative stereo) [Example 21, tert-Butyl cis-3-[(hydroxyamino)carbonyl]-4-[({4-[(2-methylquinolin-4-yl)methoxy]phenyl}sulfonyl)amino]pyrrolidine-1-carboxylate] |
| 230 | 0.8 | > 16700 | > 16700 | 17 | Cc1cc(COc2ccc(S(=O)(=O)N[C@@H]3CCOCC3C(=O)NO)cc2)c2ccccc2n1 (stereo in doubt) [Example 24, (3S,4R)-4-[4-(2-Methyl-quinolin-4-ylmethoxy)-benzenesulfonylamino]-tetrahydro-pyran-3-carboxylic acid hydroxyamide] |
| > 50000 | 7.9 | > 16700 | > 16700 | > 1000 | Cc1cc(COc2ccc(S(=O)(=O)N(C)[C@@H]3CCOCC3C(=O)NO)cc2)c2ccccc2n1 (stereo in doubt) [Example 25, (3S,4R)-4-{Methyl-[4-(2-methyl-quinolin-4-ylmethoxy)-benzenesulfonyl]-amino}-tetrahydro-pyran-3-carboxylic acid hydroxyamide] |
| 41000 | 1.4 | > 16700 | > 16700 | 929 | Cc1cc(COc2ccc(S(=O)(=O)N(C)[C@H]3COC[C@H]3C(=O)NO)cc2)c2ccccc2n1 (stereo in doubt) [Example 27, (3S,4R)-4-{Methyl-[4-(2-methyl-quinolin-4-ylmethoxy)-benzenesulfonyl]-amino}-tetrahydro-furan-3-carboxylic acid hydroxyamide] |
